The values that follow come from patent publication US4579859A, “Vasodilating trinitratoalkyl esters of 2-cyano-1,4-dihydropyridines” (Fujisawa Pharmaceutical Co., Ltd., priority 1983, dated 1986).

The assay has as its system isolated coronary artery. The assay can be described thus: Effect on isolated coronary artery (relaxation of KF-contracted spiral strips; papaverine 10^-4 M = 100%). Details: species or system dogs. Particulars: Canis lupus familiaris, read-out: ED50 values. The method, then:
The large coronary arteries, 2.0 mm in outside diameter were removed from pentobarbital-anesthetized dogs. Spiral strips approximately 15 mm in length were cut from the large arteries, and suspended in an organ bath containing calcium-free-Tyrode's solution with EGTA 0.2 mM at 37° C., aerated with a gas mixture of 95% oxygen and 5% carbon dioxide. The tonus of the strips was recorded on a polygraph with a force-displacement transducer. After the initial resting tension was adjusted to 1.0 g for the large artery, potassium fluoride 10 mM was added to the organ bath to increase the tonus of the large arterial strips to 1.4-1.6 g.
The cumulative concentrations of the test compound were then added, and finally paraverine 10^-4 M was given to determine maximum relaxation. ED50 values were calculated by interpolation from the mean cumulative dose-activity curves (effect of papaverine 10^-4 M=100%).

Converted amounts (≈) assume the structure as drawn. Where two headings read alike, the source gives them in different places. A value given as a limit tells only on which side of the number the result lay.

Turning to `CCOC(=O)C1=C(C)NC(C)=C(C(=O)OCC(CO[N+](=O)[O-])(CO[N+](=O)[O-])CO[N+](=O)[O-])C1c1cccc(Cl)c1Cl` (stereo not drawn) [Compound A, 3-Nitrooxy-2,2-bis(nitrooxymethyl)propyl ester of 4-(2,3-dichlorophenyl)-5-ethoxycarbonyl-2,6-dimethyl-1,4-dihydropyridine-3-carboxylic acid], the EC50 was determined as 0.97 µg/mL (≈ 1.56 µM).

For the compound `COC(=O)C1=C(C#N)NC(C)=C(C(=O)OCC(CO[N+](=O)[O-])(CO[N+](=O)[O-])CO[N+](=O)[O-])C1c1cccc([N+](=O)[O-])c1` (stereo not drawn) [Compound B, 3-Nitrooxy-2,2-bis(nitrooxymethyl)propyl ester of 6-cyano-5-methoxycarbonyl-2-methyl-4-(3-nitrophenyl)-1,4-dihydropyridine-3-carboxylic acid], the EC50 amounted to 0.17 µg/mL (≈ 0.285 µM).

Take `COC(=O)C1=C(C)NC(C)=C(C(=O)OC)C1c1ccccc1[N+](=O)[O-]` [Nifedipine, Dimethyl esters of 2,6-dimethyl-4-(2-nitrophenyl)-3,5-dicarboxylic acid, reference compound]: for the setting “isolated dog large coronary artery strips, calcium-free Tyrode's solution with EGTA 0.2 mM, 37° C., tonus by potassium fluoride 10 mM, cumulative concentrations, papaverine 10^-4 M = 100%”, the EC50 is greater than 1 µg/mL.
